# Measurements published in patent publication US20230389545A1, “ANTIMICROBIAL COMPOSITION” (The Procter & Gamble Company, priority 2022, published 2023).
# Experiments:
# [1] = Stability of the isolated solid followed by 1H NMR; type: physicochemical; details: storage
# Gram Negative = assay: Surface Antimicrobial Kill Testing Method, activity normalized to triclosan internal standard; type: cell-based; details: for antimicrobial activity (in words, comment on Table 1B): composition with nonionic surfactant and non-aqueous solvent; for antimicrobial benefit (in words, comment on Table 2B): DPGME / Surfonic L24-9 composition
# Procedure: Inoculum is prepared by streaking microorganism onto a Tryptic Soy Agar (TSA) plate and incubating for 24 h at 33° C. Plated bacteria is resuspended in saline until the transmittance percentage falls within the accepted range for ˜10^8 cfu/mL. For K. pneumonia (Kp) and P. aeruginosa (Pa), this is 31.00-33.00% T. For S. aureus (Sa) this is 23.00-25.00% T. A 10× concentration is made by spinning down the prepared inoculum, removing the supernatant saline from the bacterial pellet, then resuspending the pellet in 1/10th of the original volume of saline. The final inoculum is prepared with 5% of “soil” in the form of Fetal Bovine Serum (FBS).
# A 18×18 mm sterile glass coverslip is placed into an appropriate container (e.g. petri dish). 20 μL of prepared inoculum is added to the glass coverslip. Inoculum is then air-dried for 30 minutes in a 36° C. incubator. After drying, 40 μL of test sample is added on top of the dried inoculum. This is incubated at room temperature for the desired contact time. 5 mL of neutralizing media (Modified Letheen Broth+Tween+Lecithin (MLBTL)) is added to the coverslip and shaken on an orbital shaker for 5 minutes to ensure proper neutralization and extraction. Viability is then assessed of the neutralized and extracted sample by traditional/alternative microbiological techniques.
# The normalized antimicrobial activity reported in the performance examples below was generated from detection time data obtained as described in the Surface Antimicrobial Kill Test Method. To account for day-to-day variability an internal standard was tested with each series. […] Normalized activity is reported following the equation 1 below.
# Normalized Activity=(αΔDT−βΔDT)/(γΔDT−βΔDT) equation 1.
# where, αΔDT is the average detection time of the antimicrobial compound, and γΔDT is the average detection time of the reference triclosan internal standard, and βΔDT is the average detection time of the background unperturbed bacteria.
# Modified amino acids of the present disclosure were tested as aqueous solutions in the Surface Antimicrobial Kill Testing Method above. To prepare test solutions modified amino acids were first dissolved in the appropriate solvent. Second the selected surfactant is added to the mixture. After vortex (1 min, Vortex-2 Genie, vortex speed 8) mixing, the samples were then diluted with […] of reverse osmosis water (RO water, Millipore Direct-Q™, pH 6). The aqueous solution was then vortexed (1 min, Vortex-2 Genie, vortex speed 8), to which the second ½ portion of water is added. The pH of the solution was then adjusted to the target pH using either 1N HCl, Glacial Acetic Acid, or 1N NaOH. The final solution was then vortexed (1 min, Vortex-2 Genie, vortex speed 8). An example batch sheet is provided below in Table 1.
# After treatment, microbial growth is referenced and reported to a triclosan sample and unaltered microbes according to the Normalization of Antimicrobial Activity provided above.
SMILES,stability of the independent solid by 1H NMR [1],"antimicrobial activity (in words, comment on Table 1B) (Gram Negative)","antimicrobial benefit (in words, comment on Table 2B) (Gram Negative)","antimicrobial efficacy versus pH (in words, comment on Table 3) (Gram Negative; composition pH of about 2 to less than about pH 9)","microbial activity with surfactants (in words, comment on Table 4) (Gram Negative; with non-ionic and amphoteric surfactants, isotropic solutions)"
"CC(C)(C)OC(=O)[C@@H](N)Cc1c[nH]c2ccccc12 [Synthetic Example 1, L-tryptophan tert-butyl ester]",stable for several months,proved to be antimicrobial,–,–,–
CCCCCCCCOC(=O)[C@@H](N)Cc1c[nH]c2ccccc12 [Synthetic Example 3],stable for several months,highest antimicrobial activity,–,–,–
CCCCCCCCCCCCOC(=O)[C@@H](N)Cc1c[nH]c2ccccc12 [Synthetic Example 4],stable for several months,–,–,–,–
CCCCCCCCOC(=O)[C@@H](N)Cc1ccc(O)cc1 [Synthetic Example 5],stable for several months,–,antimicrobial benefit over the solvent/surfactant alone and over Comparative Example C2,improved antimicrobial efficacy,improved microbial activity over the aqueous solution of the modified amino acid alone
CC/C=C\CCCCCOC(=O)[C@@H](N)Cc1ccc(O)cc1 [Synthetic Example 6],stable for several months,–,antimicrobial benefit over the solvent/surfactant alone and over Comparative Example C2,–,–
CCCCCC(CCC)COC(=O)[C@@H](N)Cc1ccc(O)cc1 (stereo partly shown) [Synthetic Example 7],stable for several months,–,antimicrobial benefit over the solvent/surfactant alone and over Comparative Example C2,–,–
